Reference: patent US9161988B2, “Multimeric peptide conjugates and uses thereof” (Angiochem Inc., priority 2009, dated 2015)

Columns and labels:
[1] = relative to Angiopep-1 (250 nM); threshold defining 'efficiently transported across the BBB'; cited from earlier work
[2] = in situ brain perfusion assay, Angiopep-1 dimer vs Angiopep-2; assay type: in vivo
Procedure: Volume of brain parenchymal distribution was measured using the in situ brain perfusion assay (FIG. 6). […] Parenchymal uptake of the Angiopep-1 dimer and Angiopep-2 was also measured at various concentrations in situ (FIG. 7).

Compound: Angiopep-6: peptide vector, SEQ ID NO:111, T F F Y G G S R G K R N N F R T E E Y (TFFYGGSRGKRNNFRTEEY)
- transport across the BBB relative to Angiopep-1 [1]: 38.5%

Compound: C[C@@H](O)[C@H](N)C(=O)N[C@@H](Cc1ccccc1)C(=O)N[C@@H](Cc1ccccc1)C(=O)N[C@@H](Cc1ccc(O)cc1)C(=O)NCC(=O)NCC(=O)N[C@@H](CSSC[C@H](NC(=O)CNC(=O)CNC(=O)[C@H](Cc1ccc(O)cc1)NC(=O)[C@H](Cc1ccccc1)NC(=O)[C@H](Cc1ccccc1)NC(=O)[C@@H](N)[C@@H](C)O)C(=O)N[C@@H](CCCNC(=N)N)C(=O)NCC(=O)N[C@@H](CCCCN)C(=O)N[C@@H](CCCNC(=N)N)C(=O)N[C@@H](CC(N)=O)C(=O)N[C@@H](CC(N)=O)C(=O)N[C@@H](Cc1ccccc1)C(=O)N[C@@H](CCCCN)C(=O)N[C@H](C(=O)N[C@@H](CCC(=O)O)C(=O)N[C@@H](CCC(=O)O)C(=O)N[C@@H](Cc1ccc(O)cc1)C(N)=O)[C@@H](C)O)C(=O)N[C@@H](CCCNC(=N)N)C(=O)NCC(=O)N[C@@H](CCCCN)C(=O)N[C@@H](CCCNC(=N)N)C(=O)N[C@@H](CC(N)=O)C(=O)N[C@@H](CC(N)=O)C(=O)N[C@@H](Cc1ccccc1)C(=O)N[C@@H](CCCCN)C(=O)N[C@H](C(=O)N[C@@H](CCC(=O)O)C(=O)N[C@@H](CCC(=O)O)C(=O)N[C@@H](Cc1ccc(O)cc1)C(N)=O)[C@@H](C)O [Angiopep-1 dimer]
- Volume of brain parenchymal distribution ([2]; as compared to monomeric Angiopep-2, especially at lower concentrations, FIG. 6): Great uptake volumes
- Parenchymal uptake ([2]; various concentrations in situ, especially at lower concentrations (<500 nmol), compared to Angiopep-2 monomer, FIG. 7): higher transport than the Angiopep-2 monomer
